The test system of this assay is dopaminergic neurons in the PPL brain region. Description: Dopaminergic neuron morphology and quantity in PPL brain regions of PD model fruit flies after 30 days of drug feeding. It counts as in vivo, Drosophila melanogaster. The conditions noted are these: fruit fly PD models (alpha-synuclein overexpression, Lrrk2 overexpression, Parkin mutation, Pink1 mutation); for effect on degenerative death/loss of dopaminergic neurons in the PPL brain region (morphology and quantity): 1 μg/mL in feed for 30 days.

Experimental: Animal models of PD caused by alpha-synuclein transgene overexpression, Lrrk2 transgene overexpression, Parkin gene mutation and Pink1 gene mutation were established in the four model groups. Each group includes 90 fruit flies and each group was further equally divided into three groups, drug-feeding groups and non-drug-feeding control group, for testing. Starting from imago at the age of 5 days, the drug-feeding group was continuously fed with 0.1 μg/mL, 1 μg/mL U0126 (U0126 is dissolved in 1% DMSO) for 30 days and the non-drug-feeding control group was fed with 1% DMSO as a solvent control. After 30 days of drug or control solvent feeding, the brains of fruit flies were dissected and the dopamine neurons were labeled by the whole-tissue immunostaining of the brains of the fruit flies with an anti-dopamine hydroxylase antibody. The morphology and quantity of the dopamine neurons in the PPL regions in the brains of the fruit flies were observed microscopically to determine the effect of U0126 on the dopaminergic neurons in the local brain regions.
Animal models of PD caused by alpha-synuclein transgene overexpression, Lrrk2 transgene overexpression, Parkin gene mutation and Pink1 gene mutation were established in the four model groups. Each group includes 90 fruit flies and each group was further equally divided into 2 drug-feeding groups and 1 non-drug-feeding control group for testing. […] The morphology and quantity of the dopamine neurons in the PPL regions in the brains of the fruit flies were observed microscopically to determine the effect of PD0325901 on the dopaminergic neurons in the local brain regions of the fruit flies.
Animal models of PD caused by alpha-synuclein transgene overexpression, Lrrk2 transgene overexpression, Parkin gene mutation and Pink1 gene mutation were established in the four model groups. […] The morphology and quantity of the dopamine neurons in the PPL regions in the brains of the fruit flies were observed microscopically to determine the effect of trametinib on the dopaminergic neurons in the local brain regions of the fruit flies.

In the case of `N#CC(=C(/N)Sc1ccccc1N)/C(C#N)=C(\N)Sc1ccccc1N` [U0126], the “effect on degenerative death/loss of dopaminergic neurons in the PPL brain region (morphology and quantity)” value is on record as “can effectively reverse the degenerative death of the dopaminergic neurons”.
Regarding `O=C(NOC[C@H](O)CO)c1ccc(F)c(F)c1Nc1ccc(I)cc1F` [PD0325901], the “effect on degenerative death/loss of dopaminergic neurons in the PPL brain region (morphology and quantity)” value is given as “can effectively reverse the degenerative loss of the dopaminergic neurons”.
`CC(=O)Nc1cccc(-n2c(=O)n(C3CC3)c(=O)c3c(Nc4ccc(I)cc4F)n(C)c(=O)c(C)c32)c1` [trametinib]: the “effect on degenerative death of dopaminergic neurons in the PPL brain region (morphology and quantity)” value (16.24 μM/mL in feed for 30 days) is recorded as “can effectively reverse the degenerative death of the dopaminergic neurons”.

Source of the values: US20190151320A1, “APPLICATION OF MAPK SIGNALING PATHWAY INHIBITOR IN MANUFACTURE OF DRUGS FOR DELAYING DEGENERATION OF DOPAMINERGIC NEURONS” (FUZHOU UNIVERSITY, priority 2016, published 2019).
